Assay: Titration of lipophilic capsule contents (placebo) with water until emulsification (robustness)
Assay type: physicochemical
Conditions: placebo capsule contents after the 5 w/w addition of the emulsion stabilizer; titrated with water at room temperature until clear oily liquid turns into milky turbid emulsion
Text: The resistance of the contents of gelatin capsules to the water passing inside was quantified by performing a titration experiment. While stirring constantly using a magnetic stirrer at room temperature, the lipophilic contents intended for capsules was gradually titrated with water until the clear oily liquid begins to change into a milky turbid emulsion.
The robustness of the contents was expressed in the following table as an amount of water, in % w/w, necessary to induce emulsification of the contents.

Compound | Robustness (amount of water necessary to induce emulsification of the contents) [weight %]
CCCCC/C=C\C/C=C\CCCCCCCC(=O)OCC(O)CO (stereo not drawn) [Glyceryl monolinoleate] | 3.23
CCCCCCCC/C=C\CCCCCCCC(=O)OCC(O)CO (stereo not drawn) [Glyceryl monooleate] | 4.98
Decaglyceryl decaoleate | 0.85
Decaglyceryl monolaurate | 0.84
Decaglyceryl monooleate | 1.02
Diglyceryl monooleate | 1.68
